From patent publication US12297176B2, “Compounds and methods for inhibiting EMT pathways to treat cancer, organ fibrosis and metabolic disorders” (University of Pittsburgh—Of the Commonwealth System of …, priority 2017, dated 2025)

How the values were obtained:
Hippo pathway = Hippo pathway luciferase reporter in 293 cells; assay type: cell-based; conditions: 24 hours
Experimental: (§1) FIGS. 1A-1C. CPADAML16 is a common inhibitor of Wnt (FIG. 1C), TGF beta (FIG. 1B), and Hippo (FIG. 1A). 293 cells were transfected with luciferase reporters corresponding to each pathway and then exposed to CPADAML16, the Wnt inhibitor Pyrvinium (PYR) or the TGF beta inhibitor SB-431 at the indicated concentrations. After 24 hours, the cells were lysed and luciferase activity measured. Data represents average of three replicates ±SE.
The present disclosure concerns the discovery of small molecules inhibitors of major EMT pathways particularly those mediated by TGF beta, Wnt and Hippo. These pathways are known to play key roles in the induction of epithelial-mesenchymal transition (EMT) a cellular process responsible for cancer metastasis, resistance to therapy and organ fibrosis. […] In a search for putative inhibitors of the Hippo pathway, a luciferase reporter system was used to screen a series of chemical compounds. […] CPADAML16 suppressed cancer cell ability to undergo EMT, to proliferate and to become drug resistant. Investigation of the underlying mechanism led to the finding that CPADAML16 induces degradation of the Hippo transducer TAZ mainly by activating AMPK upstream of the GSK3 beta associated degradation complex. CPADAML16 exerted a strong anti-tumor activity in a xenograft mice model with no noticeable toxicity. […]

Wnt signaling = assay: Wnt pathway luciferase reporter in 293 cells; assay type: cell-based; conditions: 24 hours
Experimental: as §1
(§2) By comparison, none of Wnt or TGF beta inhibitors had affected the Hippo pathway reporter. Based on this, CPADAML16 may represent a unique candidate molecule to target simultaneously the Hippo, Wnt and TGF beta pathways.

TGF beta signaling = assay: TGF beta pathway luciferase reporter in 293 cells; assay type: cell-based; conditions: 24 hours
Experimental: as §1, §2

TAZ = assay: Western blot of Hippo pathway transducers: TAZ; assay type: cell-based
Description: (§3) FIGS. 2A-2D. Putative mechanism. FIG. 2A. Effect of CPADAML16 on Hippo pathway transduces YAP, TAZ and TEAD measured by Western blot. FIG. 2B. Possible signaling pathways leading to degradation of TAZ. The effects of CPADAML16 on the Mst/Lats kinases and the Akt/GSK3 beta axis are shown in FIGS. 2C and 2D, respectively.
(§4) There are three possibilities by which this might occur (FIG. 2B): 1) through activation Mst/Lats, 2) inhibition of Akt or 3) activation of AMPK. […] In light of recent findings that TAZ is also target of the GSK3 beta associated destruction complex, we reasoned that CPADAML16 may act directly or indirectly to activate this complex. […] These effects were concentration and time dependent and valid in various cell lines […]. […] Together these findings identified AMPK as a novel target of CPADAML16, shedding light on a new mechanism by which this compound could signal for TAZ degradation and inhibition of Hippo signaling.

YAP = assay: Western blot of Hippo pathway transducers: YAP; assay type: cell-based
Description: as §3, §4

TEAD = assay: Western blot of Hippo pathway transducers: TEAD; assay type: cell-based
Description: as §3, §4

MST1 = assay: Activation (phosphorylation) of Hippo core kinase MST1; assay type: cell-based
Description: as §3, §4

Lats1 = assay: Activation (phosphorylation) of Hippo core kinase Lats1; assay type: cell-based
Description: as §3, §4

GSK3 beta = assay: Phosphorylation of GSK3; assay type: cell-based; conditions: inhibited phosphorylation = induced activation
Description: as §3, §4

Akt = assay: Phosphorylation of Akt; assay type: cell-based
Description: as §3, §4

AMPK = assay: Phosphorylation of AMPK at threonine 172; assay type: cell-based
Description: FIGS. 3A-3G. Effect of CPADAML16 on […]. FIGS. 3A and 3B. Dose and time dependent effects of CPADAML16 on phosphorylation of AMPK. FIG. 3C. Effect of AICAR on phosphorylation of AMPK. FIG. 3D. Effect of CPADAML16 on phosphorylation of AMPK downstream target ACC. FIGS. 3E-3G. Confirmation CPADAML16-induced AMPK phosphorylation in different cell lines.
as §4

cell migration = assay: Cell monolayer scratch, cell migration; assay type: cell-based
Experimental: (§5) FIGS. 4A-4C. Inhibition of cell migration, proliferation and resistance to therapy by CPADAML16. FIG. 4A. Cell monolayer scratch depicting inhibition of cell migration by CPADAML16. FIG. 4B. Effect on cell proliferation measured after 5 days of incubation. FIG. 4C. Cell response to doxorubicin was measured in the presence and absence of CPADAML16. Data in FIG. 4C represent average of three determinations ±SE.

[1] = tested on: three melanoma and one breast cancer cell lines; assay: Cell proliferation after 5 days of incubation; assay type: cell-based
Experimental: as §5

melanoma cell = assay: Cell response to doxorubicin with and without compound; assay type: cell-based
Experimental: as §5

melanoma cells WM266 = assay: Anti-tumor activity in mice bearing xenograft tumors; assay type: in vivo, nude mice (strain CD1); conditions: 20 mg/Kg, 3 injections, end of experiment
Experimental: (§6) FIGS. 5A-5B. Effect of CPADAML16 (20 mg/kg) on tumor growth (FIG. 5A) and body weight (FIG. 5B). Data represents 7 replicates ±SE.
(§7) Experiments were carried out to analyse the anti-tumor activity and safety of CPADAML16 in mice bearing xenograft tumors. For this, nude mice (strain CD1) were sub-cutaneously inoculated with melanoma cells WM266 and after tumors became palpable, they were randomized into control and treatment groups and received 3 injections (starting on day 15 and separated by three days) of vehicle (control group) or CPADAML16 dissolved in the vehicle solution (treatment groups). Tumor volumes and body weight were measured and mice evaluated for signs of toxicity on a daily basis. At the end of experiments, the animals were sacrificed and tumors harvested to determine if molecular targets of CPADAML16 were altered.

[2] = Body weight and signs of toxicity in xenograft mice; assay type: in vivo, nude mice (strain CD1); conditions: WM266 xenograft mice
Experimental: as §6, §7

**Q.** For `CCCCCOc1ccccc1C(=O)c1cc(C(=O)OCC)c(=O)n(Cc2ccccc2)c1` [CPADAML16, 3-Ethoxycarbonyl-5-(o-pentyloxybenzoyl)-1-(benzyl)pyridin-2-one], which “Hippo pathway reporter luciferase activity” value (Hippo pathway) is on record?
**A.** remarkable inhibitory activity

**Q.** What about the “Wnt signaling reporter luciferase activity” value (Wnt signaling) of the same compound?
**A.** remarkably inhibited

**Q.** What about the “TGF beta signaling reporter luciferase activity” value (TGF beta signaling) of the same compound?
**A.** remarkably inhibited

**Q.** And the Taz levels (TAZ)?
**A.** reduced in a concentration dependent manner

**Q.** And the YAP levels (YAP)?
**A.** largely unaltered

**Q.** And the TEAD levels (TEAD)?
**A.** largely unaltered

**Q.** What about the “phosphorylation of MST1” value (MST1) of the same compound?
**A.** did not affected phosphorylation

**Q.** What about the “phosphorylation of Lats1” value (Lats1) of the same compound?
**A.** did not affected phosphorylation

**Q.** What about the “phosphorylation of GSK3” value (GSK3 beta) of the same compound?
**A.** inhibited phosphorylation

**Q.** What about the “phosphorylation of Akt” value (Akt) of the same compound?
**A.** not due to reduced phosphorylation of Akt

**Q.** What about the “potency of AMPK activation compared with AICAR” value (AMPK) of the same compound?
**A.** more potent than AICAR

**Q.** What about the “phosphorylation of AMPK at threonine 172” value (AMPK; concentration and time dependent, various cell lines) of the same compound?
**A.** strongly induced phosphorylation

**Q.** What about the cell migration (cell migration) of the same compound?
**A.** strongly inhibits

**Q.** What about the proliferation [1] of the same compound?
**A.** strongly inhibits

**Q.** And the “melanoma cell response to doxorubicin in the presence of the compound” value (melanoma cell)?
**A.** significantly enhanced

**Q.** And the tumor growth inhibition (melanoma cells WM266)?
**A.** about 90%

**Q.** What about the body weight ([2]; 20 mg/kg) of the same compound?
**A.** did not change significantly

**Q.** And the “health / signs of toxicity” value ([2]; evaluated daily)?
**A.** in good health throughout the experiment
